Measurements: patent US12509437B2, “Substituted thiophene carboxamides and derivatives thereof as microbicides” (Bayer Aktiengesellschaft, priority 2019, dated 2025)
Read-outs that look alike come from different tables or passages of the source.

Experiments:
[1] = LogP by HPLC on reversed phase columns (EEC directive 79/831 Annex V.A8); type: physicochemical; details: reversed phase HPLC columns
Outline: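 Reversed-phase HPLC, calibrated with straight-chain alkan-2-ones (C3–C16) of known LogP; values by linear interpolation of retention times between successive alkanones. Multiple values from one method are joined by "+"; lambda-max taken from 200–400 nm UV spectra at chromatographic peaks.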

[2] = test system: salicylate responsive promoter sequence of the PR1 (pathogenesis-related protein I) gene (AT2G14610); assay: Induction of defense gene expression in Arabidopsis thaliana (PR1 promoter-GFP reporter plants); type: in vivo; details: 72 h, 3rd day after spraying, mock treated leaves set as 1.00, read-out: relative fluorescence value
Outline: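 Transgenic A. thaliana carrying GFP under the salicylate-responsive PR1 promoter, grown five days, then sprayed with compounds. Whole-plant fluorescence imaged and quantified on day 3 post-spray, expressed relative to mock-treated leaf background set at 1.00.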

[3] = test system: Colletotrichum lindemuthianum; assay: In vivo preventive test on Colletotrichum lindemuthianum (Anthracnose on bean); details: Colletotrichum lindemuthianum, 144 h, sprayed 72 hours before inoculation, evaluated 6 days after inoculation, read-out: efficacy; for pest or weed control at 125 ppm: 125 ppm of active ingredient; for pest or weed control at 500 ppm: 500 ppm of active ingredient; for pest or weed control at 31 ppm: 31 ppm of active ingredient
Description: The tested active ingredients were prepared by homogenization in a mixture of acetone/Dimethyl sulfoxide/Tween®, and then diluted with water to obtain the desired active material concentration.
The young plants of bean were treated by spraying the active ingredient prepared as described above. Control plants were treated only with an aqueous solution of acetone/Dimethyl sulfoxide/Tween®.
After 72 hours, the plants were contaminated by spraying the leaves with an aqueous suspension of Colletotrichum lindemuthianum spores. The contaminated bean plants were incubated for 24 hours at 20° C. and at 100% relative humidity and then for 5 days at 20° C. and at 90% relative humidity.
The test was evaluated 6 days after the inoculation. 0% means an efficacy which corresponds to that of the control plants while an efficacy of 100% means that no disease was observed.

Peronospora parasitica = assay: In vivo preventive test on Peronospora parasitica (Crucifer downy mildew) on cabbage; details: Hyaloperonospora parasitica, 120 h, sprayed 72 hours before inoculation, evaluated 5 days after inoculation, read-out: efficacy; for pest or weed control at 500 ppm: 500 ppm of active ingredient; for pest or weed control at 31 ppm: 31 ppm of active ingredient; for pest or weed control at 125 ppm: 125 ppm of active ingredient
Outline: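 Young cabbage plants were sprayed with compound in aqueous acetone/DMSO/Tween, then inoculated 72 h later with P. parasitica spores and held 5 days at 20 °C, 100% RH. Efficacy scored 5 days post-inoculation: 0% equals solvent-treated controls, 100% means no disease.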

[4] = test system: Xanthomonas campestris pv. campestris; assay: Xanthomonas campestris pv. campestris in vitro cell test; type: cell-based; details: 24 h of incubation, read-out: efficacy (inhibition of bacteria growth; no direct activity); for inhibition at 5 ppm: 5 ppm of active ingredient; for inhibition at 20 ppm: 20 ppm of active ingredient
Description: (§1) • Solvent: DMSO • Culture medium: LB broth medium (Luria Broth Miller) Sigma • Inoculum: bacteria suspension Compounds were solubilized in DMSO and the solution used to prepare the required range of concentrations. The final concentration of DMSO used in the assay was ≤1%. Inoculum was prepared from a pre-culture of bacteria grown in liquid medium and diluted to the desired optical density (OD). Compounds were evaluated for their ability to inhibit bacteria growth in liquid culture assay. The compounds were added in the desired concentrations to culture medium containing the bacteria suspension. After 24 h of incubation, the efficacy of compounds was determined by spectrometric measurement of bacteria growth. Inhibition was determined by comparing the absorbance values in wells containing the compounds with the absorbance in control wells without active ingredients.

[5] = test system: Pseudomonas syringae pv. tomato; assay: Pseudomonas syringae pv. tomato in vitro cell test; type: cell-based; details: 20 ppm of active ingredient, 24 h of incubation, read-out: efficacy (inhibition of bacteria growth; no direct activity)
Description: as §1

Uromyces appendiculatus = assay: In vivo preventive test on Uromyces appendiculatus (bean rust); details: 240 h, sprayed 72 hours before inoculation, evaluated 10 days after inoculation, read-out: efficacy; for pest or weed control at 125 ppm: 125 ppm of active ingredient; for pest or weed control at 500 ppm: 500 ppm of active ingredient
Outline: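 Young bean plants sprayed with compound in acetone/DMSO/Tween diluted in water, then inoculated 72 h later with spore suspension. Incubated 24 h at 20° C., 100% RH, then 9 days at 20° C., 70-80% RH. Efficacy scored 10 days post-inoculation, 0% = untreated-control level, 100% = no disease.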

Alternaria alternata = Alternaria alternata in vitro cell test; type: cell-based; details: 120 h, 5 days incubation, read-out: efficacy (inhibition of fungal growth; no direct activity); for inhibition at 5 ppm: 5 ppm of active ingredient; for inhibition at 20 ppm: 20 ppm of active ingredient
Description: (§2) • Solvent: DMSO • Culture medium: 14.6 g anhydrous D-glucose (VWR), 7.1 g Mycological Peptone (Oxoid), 1.4 g granulated Yeast Extract (Merck), QSP 1 liter • Inoculum: spores suspension Fungicides were solubilized in DMSO and the solution used to prepare the required range of concentrations. The final concentration of DMSO used in the assay was ≤[…]1%. A spore suspension of A. alternata was prepared and diluted to the desired spore density. Fungicides were evaluated for their ability to inhibit spore germination and mycelium growth in liquid culture assay. The compounds were added in the desired concentration to the culture medium with spores. After 5 days incubation, fungi-toxicity of compounds was determined by spectrometric measurement of mycelium growth. Inhibition of fungal growth was determined by comparing the absorbance values in wells containing the fungicides with the absorbance in control wells without fungicides.

[6] = test system: Colletotrichum lindemuthianum; assay: Colletotrichum lindemuthianum in vitro cell test; type: cell-based; details: 144 h, 6 days incubation, read-out: efficacy (inhibition of fungal growth; no direct activity); for inhibition at 5 ppm: 5 ppm of active ingredient; for inhibition at 20 ppm: 20 ppm of active ingredient
Description: as §2, with “of C. lindemuthianum” for “of A. alternata”, “inhibit spores” for “inhibit spore”, “After 6” for “After 5”

[7] = test system: Xanthomonas campestris pv. campestris; assay: In vivo preventive test on Xanthomonas campestris pv. campestris (black rot on cabbage); details: Xanthomonas campestris, sprayed 72 hours before inoculation, evaluated 8 or 10 days after inoculation, read-out: efficacy; for pest or weed control at 125 ppm: 125 ppm of active ingredient
Outline: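 Young cabbage plants sprayed preventively with compound formulated in acetone/DMSO/Tween and diluted in water, then inoculated 72 h later with a bacterial spray. Kept at 27° C, 95% relative humidity; disease scored after 8 or 10 days as % efficacy versus solvent-treated controls (0% = control, 100% = no disease).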

[8] = preparation examples, method not indicated, read-out: Log P

chromatographic logP ([1]; method [a])	SMILES	fold induction at 75 ppm [2]	fold induction at 300 ppm [2]	pest or weed control at 125 ppm [3] [%]	pest or weed control at 500 ppm [3] [%]	pest or weed control at 500 ppm (Peronospora parasitica) [%]	inhibition at 5 ppm [4] [%]	inhibition at 20 ppm [4] [%]	inhibition at 20 ppm [5] [%]	pest or weed control at 31 ppm [3] [%]	pest or weed control at 31 ppm (Peronospora parasitica) [%]	pest or weed control at 125 ppm (Peronospora parasitica) [%]	pest or weed control at 125 ppm (Uromyces appendiculatus) [%]	pest or weed control at 500 ppm (Uromyces appendiculatus) [%]	inhibition at 5 ppm (Alternaria alternata) [%]	inhibition at 20 ppm (Alternaria alternata) [%]	inhibition at 5 ppm [6] [%]	inhibition at 20 ppm [6] [%]	other results
3.25	COC(=O)C(CC(F)F)NC(=O)c1sc(Cl)c(Cl)c1C (stereo not drawn) [I.043]		> 2	90 to 100	90 to 100	90 to 100	≤ 30	≤ 30	≤ 30	90 to 100	90 to 100	90 to 100	80 to 89	90 to 100	≤ 30	≤ 30	≤ 30		
2.28	CCOC(=O)C(CC(N)=O)NC(=O)c1sc(Cl)c(Cl)c1C (stereo not drawn) [I.045]		> 2		80 to 89	90 to 100	≤ 30	≤ 30	≤ 30		90 to 100	90 to 100		90 to 100	≤ 30	≤ 30	≤ 30	≤ 30	
3.12	Cc1c(C(=O)NC(Cc2c[nH]c3ccccc23)C(=O)O)sc(Cl)c1Cl (stereo not drawn) [I.070]		> 2			90 to 100	≤ 30	≤ 30	≤ 30		70 to 79	90 to 100		90 to 100	≤ 30	≤ 30	≤ 30	≤ 30	pest or weed control at 31 ppm ([7]; 31 ppm of active ingredient): 70 to 79%; pest or weed control at 125 ppm [7]: 80 to 89%

The remaining lines, values behind:

SMILES	chromatographic logP ([1]; method [a])	fold induction at 75 ppm [2]	fold induction at 300 ppm [2]	pest or weed control at 125 ppm [3] [%]	pest or weed control at 500 ppm [3] [%]	pest or weed control at 500 ppm (Peronospora parasitica) [%]	inhibition at 5 ppm [4] [%]	inhibition at 20 ppm [4] [%]	inhibition at 20 ppm [5] [%]	pest or weed control at 31 ppm [3] [%]	pest or weed control at 31 ppm (Peronospora parasitica) [%]	pest or weed control at 125 ppm (Peronospora parasitica) [%]	pest or weed control at 125 ppm (Uromyces appendiculatus) [%]	pest or weed control at 500 ppm (Uromyces appendiculatus) [%]	inhibition at 5 ppm (Alternaria alternata) [%]	inhibition at 20 ppm (Alternaria alternata) [%]	inhibition at 5 ppm [6] [%]	inhibition at 20 ppm [6] [%]	other results
CCOC(=O)C(Cc1c[nH]c2ccccc12)NC(=O)c1sc(Cl)c(Cl)c1C (stereo not drawn) [I.040]	4.08	> 2	> 2	90 to 100	90 to 100	90 to 100	≤ 30	≤ 30	≤ 30										
CCOC(=O)C1(NC(=O)c2sc(Br)c(Br)c2C)COC1 [I.014]	2.9	> 2	> 2	80 to 89	90 to 100	90 to 100	≤ 30	≤ 30	≤ 30	70 to 79	90 to 100	90 to 100	90 to 100	90 to 100	≤ 30	≤ 30	≤ 30	≤ 30	pest or weed control at 31 ppm (Uromyces appendiculatus; 31 ppm of active ingredient): 90 to 100%
CCOC(=O)[C@@H](NC(=S)c1sc(Br)c(Br)c1C)C(C)C [I.023, ethyl N-[(4,5-dibromo-3-methyl-2-thienyl)carbonothioyl]valinate]			> 2	90 to 100	90 to 100	90 to 100	≤ 30	≤ 30	≤ 30	90 to 100	80 to 89	90 to 100			≤ 30	≤ 30	≤ 30	≤ 30	chromatographic logP [1, 8]: 5.22; pest or weed control at 125 ppm [7]: 80 to 89%; pest or weed control at 500 ppm ([7]; 500 ppm of active ingredient): 70 to 79%
C=CC1CC1(NC(=O)c1sc(Br)c(Br)c1C)C(=O)OC (stereo not drawn) [I.003]	3.48	> 2			80 to 89	90 to 100	≤ 30	≤ 30	≤ 30			80 to 89	90 to 100	90 to 100	≤ 30	≤ 30	≤ 30		
Cc1c(C(=S)N[C@H](C(=O)O)C(C)C)sc(Br)c1Br [I.031, N-[(4,5-dibromo-3-methyl-2-thienyl)carbonothioyl]valine]		> 2	> 2		90 to 100	90 to 100	≤ 30	≤ 30	≤ 30			90 to 100		70 to 79	≤ 30	≤ 30	≤ 30	≤ 30	chromatographic logP [1, 8]: 3.72
